In PMC10341658, “In Silico Screening and Anticancer-Apoptotic Evaluation of Newly Synthesized Thienopyrimidine/Sulfonamide Hybrids” (International Journal of Molecular Sciences, 2023):

Legend:
MCF-7 = test: MTT anti-proliferative assay, MCF-7; type: cell-based, human; settings: for IC50: 72 h of exposure, MTT, mean ± S.D. of three observations; for selectivity index (SI) MCF-7: IC50 MCF 10A/IC50 MCF-7, 72 h of exposure
Method: (§1) The cytotoxic effect of the synthesized compounds was estimated against human breast cancer cell lines (MCF-7 and MDA-MB231).
(§2) MTT (3-[4,5-dimethylthiazol-2-yl]-2,5 diphenyltetrazolium bromide) assay was used to study the anticancer activity of all derivatives against breast cancer cells MCF-7and MDAMB231 (obtained from ATCC, Manassas, VA, USA). […] Briefly, cells plated onto 96-well plates (5000 cells/well) were allowed to adhere and form a semi-confluent monolayer. After 24 h, the cells were treated with different concentrations of derivatives (0–100 µM) for 72 h. After the exposure, cytotoxicity was assessed following the MTT Assay Kit protocol (Abcam, Cambridge, UK) as reported earlier.

MDA-MB-231 = test: MTT anti-proliferative assay, MDA-MB-231; type: cell-based, human; settings: for IC50: Homo sapiens, MDA-MB-231, 72 h of exposure, MTT, mean ± S.D. of three observations; for selectivity index (SI) MDA-MB231: IC50 MCF 10A/IC50 MDA-MB231, 72 h of exposure
Method: as §1, §2

[1] = system: MCF-10A (Non-Tumorigenic Cells); test: MTT cytotoxicity on non-tumorigenic MCF-10A cells; type: cell-based; settings: Homo sapiens, 72 h of exposure, mean ± S.D. of three observations
Method: as §2, with “After 24 h, the cells were treated with different concentrations of derivatives (0–100 µM) for 72 h.” left out
The selectivity ratio in non-cancerous cells (MCF10A) versus cancer cells (MCF-7 and MDAmb231) was calculated as reported in [26, 27] using the following equation: SI = IC50 of normal cells/IC50 of cancer cells.

FGFR-1 = target: T1, FGFR-1 (Homo sapiens, UniProt P11362); test: FGFR-1 inhibitory activity (FGFR-1 ELISA Kit, MDA-MB-231 cell lysates); type: biochemical
T1 construct: host or cells: MDA-MB-231
Method: To determine basal FGFR-1 activity, a FGFR-1 ELISA Kit was used according to the protocol of the manufacturer (G-Biosciences, Saint Louis, MO, USA). […] After 90 min of incubation at 37 °C, 100 μL Biotinylated Detection Antibody was added and incubated for 60 min. After washing twice each with washing buffer, 100 μL ELISA Detection Reagent was added to each well and incubated for 30 min. After washing, 90 μL of Detection Substrate (TMB) was added to visualize the enzymatic reaction. TMB was catalyzed to produce a blue color that changed into yellow after adding 50 μL of acidic stop solution. The density of yellow is directly proportional to the concentration of FGFR-1 captured on the plate using a Varioskan TM LUX multimode microplate reader (Thermo Scientific, Waltham, MA, USA).

Caspase-3 = Caspase-3 colorimetric activity assay (Ac-DEVD-pNA) in MDA-MB-231 cells; type: cell-based, human; settings: predetermined IC50 of compound, 24 h
Method: To further explore the cytotoxicity of the prepared hybrids, their influence on Caspase-3 activity was examined. MDA-MB-231 cells were incubated with the predetermined IC50s of tested compounds for a duration of 24 h.
Caspase-3 activity was assessed with a colorimetric assay based on the hydrolysis of acetyl–Asp–Glu–Val–Asp p-nitroanilide (Ac-DEVD-pNA) by Caspase-3 and releasing p-nitroaniline (pNA). MDA-MB-231 cell lysates (100 ng/mL) were diluted and subjected to analysis via Caspase-3 Colorimetric Assay Kit (Sigma-Aldrich, Saint Louis, MO, USA) based on the protocol of the manufacturer. The reaction for color development was held at 37 °C for 2 h, and the value of OD405 was determined using a Varioskan TM LUX multimode microplate reader (Thermo Scientific, Waltham, MA, USA). Each caspase-3 activity was expressed as a value of OD405.

MDA-MB-231 cells = test: Annexin V-FITC/PI flow cytometric apoptosis analysis; type: cell-based, human; settings: MDA-MB-231, Annexin V-FITC/PI, predetermined IC50
Method: Apoptosis and necrosis are two routes that make up the overall division of the cell death pathway carried out by anticancer agents. A double labeling flow cytometry assay using Annexin V-FITC/propidium iodide was performed to identify which mechanism, necrosis, or apoptosis is responsible for cell death.
Apoptosis was detected after 48 h of cell culture using V-FITC apoptosis detection kit (BD Pharmingen TM, Franklin Lakes, NJ, USA). […] After treatment, cells were collected, washed with ice-cold PBS and centrifuged at 200× g for 5 min. The cell pellet was suspended in 200 μL of annexin V-FITC/PI solution for 15 min in the dark. The stained and Annexine V propidium iodide negative cells were evaluated via CytoFLEX flow cytometry (Beckman Coulter, Brea, CA, USA). Ten thousand cells (gated events) were captured for each sample. The mean fluorescence intensity was analyzed with Cytoexpert (Beckman Coulter).

T1 sequence (P11362 22-822): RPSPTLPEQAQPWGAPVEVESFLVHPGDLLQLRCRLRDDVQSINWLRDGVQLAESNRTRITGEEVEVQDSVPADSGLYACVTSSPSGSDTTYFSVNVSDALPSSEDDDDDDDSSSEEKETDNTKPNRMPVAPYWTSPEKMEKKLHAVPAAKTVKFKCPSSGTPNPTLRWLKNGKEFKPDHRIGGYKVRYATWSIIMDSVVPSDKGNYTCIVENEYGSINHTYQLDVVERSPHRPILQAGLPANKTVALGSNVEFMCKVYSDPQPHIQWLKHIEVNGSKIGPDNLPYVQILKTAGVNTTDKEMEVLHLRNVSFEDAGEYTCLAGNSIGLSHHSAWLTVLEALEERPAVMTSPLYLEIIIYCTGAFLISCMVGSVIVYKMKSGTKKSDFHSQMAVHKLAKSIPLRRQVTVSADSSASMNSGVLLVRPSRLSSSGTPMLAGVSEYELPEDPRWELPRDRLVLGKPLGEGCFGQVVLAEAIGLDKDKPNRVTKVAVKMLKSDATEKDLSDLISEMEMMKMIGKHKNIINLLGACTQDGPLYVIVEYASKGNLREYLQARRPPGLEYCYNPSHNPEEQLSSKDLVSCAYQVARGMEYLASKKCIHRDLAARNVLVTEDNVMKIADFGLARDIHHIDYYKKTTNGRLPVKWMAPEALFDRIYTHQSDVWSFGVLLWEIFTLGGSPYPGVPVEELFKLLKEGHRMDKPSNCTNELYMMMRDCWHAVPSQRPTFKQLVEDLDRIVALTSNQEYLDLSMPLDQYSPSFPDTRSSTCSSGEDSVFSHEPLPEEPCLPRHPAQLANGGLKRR

SMILES | IC50 (MCF-7; Homo sapiens, MCF7, 72 h) [µM] | selectivity index (SI) MCF-7 (MCF-7) | IC50 (MDA-MB-231) [µM] | selectivity index (SI) MDA-MB231 (MDA-MB-231) | IC50 [1] [µM] | IC50 (FGFR-1) [µM] | IC50 (MCF-7) [µM] | Caspase-3 activity fold change vs control cells (Caspase-3) [fold] | increase of population of late apoptotic cells (MDA-MB-231 cells) [fold] | increase of population of necrotic cells (MDA-MB-231 cells) [fold]
N=C(N)NS(=O)(=O)c1ccc(Nc2ncnc3sc4c(c23)CCCC4)cc1 [Compound 4ai, N-carbamimidoyl-4-((5,6,7,8-tetrahydrobenzo[4,5]thieno[2,3-d]pyrimidin-4-yl)amino) benzenesulfonamide] | 35.8 ± 1.2 | 12.79 | 40.2 ± 2.7 | 11.40 | 458 ± 12.3 | 132 ± 4.3 |  |  |  | 
CCOC(=O)c1sc2ncnc(Cl)c2c1C [Compound 3b] | < 10 | 27.20 | 4.45 ± 0.31 | 59.45 | 265 ± 4.2 | 179 ± 5.6 | 9.74 ± 0.13 | 2.3 | 4.8 | 5.5
COc1cccc2c1C(=O)c1c(O)c3c(c(O)c1C2=O)C[C@@](O)(C(=O)CO)C[C@@H]3O[C@H]1C[C@H](N)[C@H](O)[C@H](C)O1 [Doxorubicin, reference compound] | 1.6 ± 2.2 |  | 2.2 ± 0.3 |  |  |  |  |  |  | 
CCOC(=O)c1sc2ncnc(Nc3ccc(S(=O)(=O)NC(=N)N)cc3)c2c1C [Compound 4bi, Ethyl-4-((4-(N-carbamimidoylsulfamoyl)phenyl)amino)-5-methylthieno[2,3-d]pyrimidine-6-carboxylate] | < 10 | 44.86 | 8.68 ± 4.3 | 31.90 | 277 ± 7.9 | 326 ± 7.4 | 6.17 ± 1.3 |  |  | 
CCOC(=O)c1sc2ncnc(Nc3ccc(S(=O)(=O)Nc4ncccn4)cc3)c2c1C [Compound 4bii, Ethyl-5-methyl-4-((4-(N-(pyrimidin-2-yl)sulfamoyl)phenyl)amino)thieno[2,3-d]pyrimidine-6-carboxylate] | 14 ± 8.2 | 16.45 | 15.57 ± 0.1 | 14.77 | 230 ± 24.1 | 289 ± 12 |  |  |  | 
O=S(=O)(Nc1ncccn1)c1ccc(Nc2ncnc3sc4c(c23)CCCC4)cc1 [Compound 4aii, N-(pyrimidin-2-yl)-4-((5,6,7,8-tetrahydrobenzo[4,5]thieno[2,3-d]pyrimidin-4-yl)amino)benzenesulfonamide] | 22.3 ± 3.1 |  | 20.2 ± 1.5 |  | > 1000 | 119 ± 5.6 |  |  |  | 
CCOC(=O)c1sc2ncnc(Nc3ccc(S(=O)(=O)Nc4cc(C)on4)cc3)c2c1C [Compound 4biii, Ethyl-5-methyl-4-((4-(N-(5-methylisoxazol-3-yl)sulfamoyl)phenyl)amino) thieno[2,3-d]pyrimidine-6-carboxylate] | < 10 | 25.62 | 17.6 ± 2.3 | 13.86 | 244.5 ± 1.9 | 168 ± 8.3 | 9.54 ± 3.1 |  |  | 
Cc1cc(NS(=O)(=O)c2ccc(Nc3ncnc4sc5c(c34)CCCC5)cc2)no1 [Compound 4aiii, N-(5-methylisoxazol-3-yl)-4-((5,6,7,8-tetrahydrobenzo[4,5]thieno[2,3-d]pyrimidin-4-yl)amino)benzenesulfonamide] | 67.1 ± 15.7 | 1.32 | 68.3 ± 4.6 | 1.29 | 88.5 ± 10.1 | 159 ± 5.3 |  |  |  | 
